Test results taken from paper PMC4744035, “In Vivo, In Vitro, and In Silico Characterization of Peptoids as Antimicrobial Agents” (PLoS ONE, 2016).
Converted amounts (≈) assume the structure as drawn. Like-named read-outs stand apart in the source and are kept apart here. Square brackets hold non-standard residues; d marks the D form. Ends that are not written are not given here. Peptide text beside a SMILES is read from it. Nspe = C[C@H](NCC(=O)O)c1ccccc1; Nphe = O=C(O)CNCc1ccccc1; Nlys = NCCCCNCC(=O)O

Legend:
LPS (P. aeruginosa) [1] = test: Dansyl polymyxin B (DPX) displacement assay, LPS binding; details: DPX bound to P. aeruginosa LPS; for IC50: read-out: I50 (concentration that displaces 50% of LPS-bound DPX)
Procedure: The Dansyl polymyxin B (DPX) displacement assay was carried out as described earlier. In brief, the fluorescence of DPX (Invitrogen) bound to LPS (P. aeruginosa) was measured by using a Luminescence spectrometer LS 50B (Perkin Elmer) with excitation and emission-wavelengths of 340 nm and 485 nm, respectively. A predetermined amount of DPX, resulting in 90% saturation of LPS, was added to 1 mL of 3 μg/mL of purified LPS. Small aliquots (5 μL of 1 μg/mL) of test compounds were added under constant stirring in the cuvette, and the displacement of DPX was measured for 30–60 seconds as a decrease in fluorescence. The process was repeated until maximum displacement was reached.
The ability of other cationic molecules to displace DPX molecules bound to LPS (monitored by reduction in fluorescence) assesses their relative ability to bind to LPS [33, 34]. While the highly cationic MSI-78 (+10 charge) displaced 100% of bound DPX (equivalent to that of polymyxin B), peptoid 1 and MX-226 displaced 71% and 73% of bound DPX, respectively. […] A second parameter characterizing the LPS/polycation interaction is the I50, which is defined as the concentration of a polycation that displaces 50% of LPS-bound DPX. The I50 is inversely related to the relative affinity of each molecule for binding sites on LPS.

[2] = system: 20 bacterial strains (13 Gram-negative, 7 Gram-positive)
Procedure: The MICs of test agents were measured using a modified broth micro-dilution method in Difco Mueller Hinton medium, on a panel of bacterial pathogens that were both susceptible and resistant to common antibiotics (S1 File). Briefly, serial dilutions were performed in 0.01% acetic acid containing 0.2% bovine serum albumin at 10-fold the desired final concentration. Ten μL of the 10-fold concentrated test reagents were added to each well of a 96-well polypropylene microtitre plate containing 90 μL of Mueller Hinton media per well. Bacteria were added to the plate from an overnight culture at a final concentration of 2–7 x 10^5 CFU/mL and incubated overnight at 37°C. The MIC is defined as the concentration at which no growth was observed.
Screening of peptoid antimicrobial activity against a panel of multidrug resistant superbugs was done according to the protocol described in the manuscript. The bacterial strains used in this panel included; P. aeruginosa PAO1 strain H103 [1], P. maltophilia ATCC#13637, S. aureus ATCC#25923 [1], E. faecalis ATCC#29212 [2], and E. cloacae 218R, constitutively expressing Class C chromosomal β-lactamase, were from the Hancock lab strains collection. An MRSA clinical isolate was kindly provided by Anthony Chow (Vancouver General Hospital, Vancouver, Canada). Two Klebsiella pneumoniae and two E. coli clinical isolates expressing extended spectrum β-lactamases (ESBL) were kindly provided by George Zhanel (Health Sciences Centre, Winnipeg, Canada). Vancomycin-resistant clinical isolates of Enterococcus faecalis and E. faecium were obtained from Ana M. Paccagnella (BC Centre for Disease Control, Vancouver, Canada). Three clinical isolates (#9, #198 and #213) of multi-drug resistant P. aeruginosa, were kindly provided by Carlos Kiffer (University of São Paulo, Brazil). […] Three P. aeruginosa clinical isolates of the Liverpool epidemic strain (LES) (H1027, H1030 and LES400) were all kindly provided by Craig Winstanley (University of Liverpool, UK). […] All tested bacterial strains were categorized as biohazard level 2 pathogens.

P. maltophilia ATCC13637 = test: microbe, parasite or virus in culture; details: ATCC13637
Outline: (§1)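 Modified broth microdilution in Mueller Hinton medium in polypropylene plates; test agents serially diluted in 0.01% acetic acid with 0.2% BSA at 10-fold final concentration.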

P. aeruginosa 213 (MDR) = test: microbe, parasite or virus in culture; details: 213 (MDR)
Outline: as §1

[3] = system: E. cloacae 218R Class C β-lactamase; test: microbe, parasite or virus in culture; details: 218R Class C β-lactamase
Outline: as §1

[4] = system: P. aeruginosa H103 (wild type); test: microbe, parasite or virus in culture; details: H103 (wild type)
Outline: as §1

E. coli 64771 (ESBL) = test: microbe, parasite or virus in culture; details: 64771 (ESBL)
Outline: as §1

E. coli 63103 (ESBL) = test: microbe, parasite or virus in culture; details: 63103 (ESBL)
Outline: as §1

S. aureus C623 (MRSA) = test: microbe, parasite or virus in culture; details: C623
Outline: as §1

E. faecium mic80 (VRE) = test: microbe, parasite or virus in culture; details: mic80 (VRE)
Outline: as §1

[5] = system: P. aeruginosa H1027 (MDR); test: microbe, parasite or virus in culture; details: H1027 (MDR)
Outline: as §1

S. aureus ATCC25923 = test: microbe, parasite or virus in culture; details: ATCC25923
Outline: as §1

[6] = system: diabetic foot ulcer infection; design: method as in PMID 18310135; details: Phase III, diabetic foot ulcers; cited from earlier work
[7] = system: bowel perforation and sepsis; design: method as in PMID 15294887; details: cited from earlier work
E. faecalis ATCC29212 = test: microbe, parasite or virus in culture; details: ATCC29212
Outline: as §1

P. aeruginosa 9 (MDR) = test: microbe, parasite or virus in culture; details: 9 (MDR)
Outline: as §1

E. faecium T62764 (VRE) = test: microbe, parasite or virus in culture; details: T62764 (VRE)
Outline: as §1

[8] = system: K. pneumonia 63575 (ESBL); test: microbe, parasite or virus in culture
Outline: as §1

[9] = system: P. aeruginosa LES400 (MDR); test: microbe, parasite or virus in culture; details: LES400 (MDR)
Outline: as §1

[10] = system: K. pneumonia 61962 (ESBL); test: microbe, parasite or virus in culture
Outline: as §1

P. aeruginosa 198 (MDR) = test: microbe, parasite or virus in culture; details: 198 (MDR)
Outline: as §1

E. faecalis F43559 (VRE) = test: microbe, parasite or virus in culture; details: F43559 (VRE)
Outline: as §1

E. faecalis W61950 (VRE) = test: microbe, parasite or virus in culture; details: W61950 (VRE)
Outline: as §1

NIH 3T3 cells = test: Metabolic activity, MTS assay; assay type: cell-based, mouse
Outline: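 Mouse NIH 3T3 fibroblast monolayers, about 5000 cells per well, washed and exposed to serially diluted peptoids in Hank's balanced salt solution. Metabolic activity read by MTS; average of six replicate trials.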

erythrocytes = test: Hemolytic activity (HD10/HD50); assay type: cell-based
Text: Table 1 Characteristics of antimicrobial peptoids, screened for activity against B. subtilis and E. coli bacterial strains. | column: HD10 / HD50

E. coli ATCC 35218 = assay type: cell-based
Outline: (§2)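 MICs determined by 2:1 serial broth microdilution in cation-adjusted Mueller-Hinton broth per CLSI M7-A6, using inoculum at 1 x 10^6 CFU/mL mixed 1:1 with peptoid solution. Three independent replicates, each with two parallel trials.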

B. subtilis ATCC 6633 = assay type: cell-based
Outline: as §2

[11] = system: P. aeruginosa H1030 (MDR); test: microbe, parasite or virus in culture; details: P. aeruginosa H1030 (MDR)
Outline: as §1

[12] = system: MDR P. aeruginosa (polymyxin B resistant isolate); design: method as in PMID 19635950; details: MDR P. aeruginosa isolate most resistant to peptoid 1; cited from earlier work
LPS (P. aeruginosa) [13] = system: LPS (P. aeruginosa); design: method as in PMID 8702613; details: divalent cation; read-out: I50 (affinity for LPS); cited from earlier work

Row | Compound | bound DPX displaced (maximum displacement) (LPS (P. aeruginosa) [1]) [%] | IC50 (LPS (P. aeruginosa) [1]) [µM] | MIC (P. maltophilia ATCC13637) [µg/mL] | MIC (P. aeruginosa 213 (MDR)) [µg/mL] | MIC [3] [µg/mL] | MIC [4] [µg/mL] | MIC (E. coli 64771 (ESBL)) [µg/mL] | MIC (E. coli 63103 (ESBL)) [µg/mL] | MIC (S. aureus C623 (MRSA)) [µg/mL] | MIC (E. faecium mic80 (VRE)) [µg/mL] | MIC [5] [µg/mL] | MIC (S. aureus ATCC25923) [µg/mL] | MIC (E. faecalis ATCC29212) [µg/mL] | MIC (P. aeruginosa 9 (MDR)) [µg/mL] | MIC (E. faecium T62764 (VRE)) [µg/mL] | MIC [8] [µg/mL] | MIC [9] [µg/mL] | MIC [10] [µg/mL] | MIC (P. aeruginosa 198 (MDR)) [µg/mL] | MIC (E. faecalis F43559 (VRE)) [µg/mL] | also measured
1 | ILRWPWWPWRRK-NH2 (C-terminus assumed) [MX-226, Omiganan, reference compound] | 73 | 5 | 32 | 64 | 16 | 32 | 64 | 64 | 32 | 64 | 64 | 16 |  |  |  |  |  |  |  |  | number of pathogens with MIC ≤ 8 μg/mL ([2]; out of the 20 pathogens tested): none
2 | GIGKFLKKAKKFGKAFVKILKK-NH2 (C-terminus assumed) [MSI-78, pexiganan, reference compound] | 100 | 1.4 | 2 | 8 | 2 | 1 | 2 | 16 | 16 | 4 | 2 | 64 | 16 | 16 | 8 | 8 | 4 | 32 | 4 | 16 | patients in whom infection was eliminated or significantly reduced [6]: over 90%; endotoxin plasma levels ([7]; rat model of sepsis): reduce endotoxin plasma levels; reduction of bacterial counts ([7]; rat, caecal ligation and puncture model): four orders of magnitude; MICs, range against all Gram-positive strains tested [2]: 4 to 256 µg/mL; median MIC against all Gram-positive strains tested [2]: 16 µg/mL; MIC (E. faecalis W61950 (VRE)): 256 µg/mL
3 | C[C@@H](c1ccccc1)N(CC(=O)N(CC(=O)N(CCCCN)CC(=O)N(CC(=O)N(CC(=O)N(CCCCN)CC(=O)N(CC(=O)N(CC(=O)N(CCCCN)CC(=O)N(CC(=O)N(CC(N)=O)Cc1ccccc1)Cc1ccccc1)Cc1ccccc1)Cc1ccccc1)Cc1ccccc1)Cc1ccccc1)Cc1ccccc1)C(=O)CNCCCCN [Peptoid 1ach-Nspe2, H-(NLys-Nspe-Npm)- (NLys-Npm-Npm)3-NH2] (H-[Nlys][Nspe][Nphe][Nlys][Nphe][Nphe][Nlys][Nphe][Nphe][Nlys][Nphe][Nphe]-NH2) |  |  | 2 (≈ 1.16 µM) | 8 (≈ 4.65 µM) | 16 (≈ 9.3 µM) | 4 (≈ 2.32 µM) | 8 (≈ 4.65 µM) | 16 (≈ 9.3 µM) | 4 (≈ 2.32 µM) | 4 (≈ 2.32 µM) | 2 (≈ 1.16 µM) | 4 (≈ 2.32 µM) | 16 (≈ 9.3 µM) | 64 (≈ 37.2 µM) | 2 (≈ 1.16 µM) | 32 (≈ 18.6 µM) | 4 (≈ 2.32 µM) | 64 (≈ 37.2 µM) | 8 (≈ 4.65 µM) | 16 (≈ 9.3 µM) | ID50 (inhibitory dose, metabolic activity) (NIH 3T3 cells): 11 µM; HD10 (hemolytic activity) (erythrocytes): 160; HD50 (hemolytic activity) (erythrocytes): > 200; MIC E. coli (E. coli ATCC 35218): 6.3 µM (≈ 10.8 µg/mL); MIC B. subtilis (B. subtilis ATCC 6633): 0.78 µM (≈ 1.34 µg/mL); MIC [11]: 32 µg/mL (≈ 18.6 µM); MIC (E. faecalis W61950 (VRE)): 32 µg/mL (≈ 18.6 µM)
4 | polymyxin B | 100 | 3.2 |  |  |  |  |  |  |  |  |  |  |  |  |  |  |  |  |  |  | MIC [12]: 64 µg/mL
5 | [Mg+2] [Mg^2+] |  |  |  |  |  |  |  |  |  |  |  |  |  |  |  |  |  |  |  |  | IC50 (LPS (P. aeruginosa) [13]): 620 µM
